Results from patent US9440982B2 (Eolas Therapeutics, Inc., priority 2012, dated 2016).

Legend:
OX1 = target: T1, OX1 (Homo sapiens, UniProt O43613); assay: Orexin receptor cell-based functional assay, [Ca2+]i by FLIPR, CHO-OX1 cells; settings: CHO-OX1 cells, [Ca2+]i by FLIPR, antagonist dose-range 0.1 nM-10 μM, EC90 of OXA; read-out: OX1
T1 construct: expressed in transfected cells; host or cells: CHO (CHO-OX1, kept under selection antibiotic)
T1 sequence (O43613 1-425): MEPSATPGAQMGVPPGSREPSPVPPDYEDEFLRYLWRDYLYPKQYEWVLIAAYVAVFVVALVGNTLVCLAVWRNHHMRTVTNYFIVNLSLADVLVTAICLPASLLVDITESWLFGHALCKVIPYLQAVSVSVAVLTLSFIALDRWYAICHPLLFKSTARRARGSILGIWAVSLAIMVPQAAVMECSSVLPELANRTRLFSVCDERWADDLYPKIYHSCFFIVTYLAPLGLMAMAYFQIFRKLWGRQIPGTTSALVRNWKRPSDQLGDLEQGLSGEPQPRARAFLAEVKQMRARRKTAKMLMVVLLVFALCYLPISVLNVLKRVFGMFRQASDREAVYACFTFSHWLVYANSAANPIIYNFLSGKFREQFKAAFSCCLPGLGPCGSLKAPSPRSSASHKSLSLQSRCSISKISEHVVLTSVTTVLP
Method in brief: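 Antagonist mode FLIPR calcium read in CHO-OX1 and CHO-OX2 lines. Test compounds, dosed 0.1 nM-10 μM, preincubated 30 min after 37° C dye loading with 2.5 mM probenecid (calcium4 for 30 min or calcium6 for 2 h).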

CYP3A4 = target: T2, CYP3A4 (Homo sapiens, UniProt P08684); assay: Cytochrome P450 inhibition assay (midazolam hydroxylation); assay type: in vitro ADME; settings: human, human liver microsomes, probe midazolam (hydroxylation to 1′-hydroxymidazolam), 10 μM test compound, midazolam at approximately its Km
T2 construct: pre-incubated with human liver microsomes and NADPH; from tissue; host or cells: human liver microsomes
Method in brief: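 Percent inhibition of midazolam 1′-hydroxylation by 10 μM compound was measured, midazolam dosed at about Km. Time-dependent inhibition was probed by a 30 min preincubation of compound with human liver microsomes and NADPH ahead of substrate, compared against samples without preincubation.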

T2 sequence (P08684 whole entry): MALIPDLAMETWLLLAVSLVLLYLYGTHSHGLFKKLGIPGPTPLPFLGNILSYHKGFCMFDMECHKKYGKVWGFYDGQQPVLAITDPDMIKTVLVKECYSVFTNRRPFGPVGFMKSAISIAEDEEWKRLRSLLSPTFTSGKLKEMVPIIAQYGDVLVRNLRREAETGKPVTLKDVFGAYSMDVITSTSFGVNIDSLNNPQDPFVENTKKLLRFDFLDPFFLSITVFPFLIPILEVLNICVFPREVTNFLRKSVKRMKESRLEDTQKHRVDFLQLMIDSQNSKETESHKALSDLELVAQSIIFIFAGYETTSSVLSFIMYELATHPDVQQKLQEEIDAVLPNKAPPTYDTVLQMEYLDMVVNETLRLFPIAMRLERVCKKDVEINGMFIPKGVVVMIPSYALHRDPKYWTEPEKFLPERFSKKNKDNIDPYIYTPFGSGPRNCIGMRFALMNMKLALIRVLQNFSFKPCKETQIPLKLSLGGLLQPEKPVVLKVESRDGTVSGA

| Structure (SMILES) | IC50 (OX1) [nM] | inhibition at 10 µM (CYP3A4) [%] |
| --- | --- | --- |
| Cc1ccc(-c2nn[nH]n2)c(C(=O)N2CCC[C@@H](C)[C@H]2CNc2ccc(C(F)(F)F)cn2)c1 [Example A23, ((2S,3R)-3-Methyl-2-(((5-(trifluoromethyl)pyridin-2-yl)amino)methyl)piperidin-1-yl)(5-methyl-2-(2H-tetrazol-5-yl)phenyl)methanone] | > 1000 | 75 |
| Cc1ccc(-n2nccn2)c(C(=O)N2CCC[C@@H](C)[C@H]2CNc2nc(C(F)(F)F)cs2)c1 [Example A123, ((2S,3R)-3-Methyl-2-(((4-(trifluoromethyl)thiazol-2-yl)amino)methyl)piperidin-1-yl)(5-methyl-2-(2H-1,2,3-triazol-2-yl)phenyl)methanone] | 410 | 97 |
| Cc1ccc(-c2ccccn2)c(C(=O)N2CCC[C@@H](C)[C@H]2CNc2ccc(Cl)cn2)c1 [Example A117, ((2S,3R)-2-(((5-chloropyridin-2-yl)amino)methyl)-3-methylpiperidin-1-yl)(5-methyl-2-(pyridin-2-yl)phenyl)methanone] | 37 | 92 |
| Cc1ccc(-n2nccn2)c(C(=O)N2CCC[C@@H](C)[C@H]2CNc2ccc(C#N)nn2)c1 [Example A145, 6-((((2S,3R)-3-Methyl-1-(5-methyl-2-(2H-1,2,3-triazol-2-yl)benzoyl)piperidin-2-yl)methyl)amino)pyridazine-3-carbonitrile] | > 1000 | 48 |
| C[C@@H]1CCCN(C(=O)c2cc(F)c(F)cc2-c2ncccn2)[C@@H]1CNc1ncc(C(F)(F)F)cn1 [Example A243, (4,5-Difluoro-2-(pyrimidin-2-yl)phenyl)((2S,3R)-3-methyl-2-(((5-(trifluoromethyl)pyrimidin-2-yl)amino)methyl)piperidin-1-yl)methanone] | 75 | 68 |
| Cc1ccc(-n2cccn2)c(C(=O)N2CCC[C@@H](C)[C@H]2CNc2ccc(C#N)nn2)c1 [Example A156, 6-((((2S,3R)-3-Methyl-1-(5-methyl-2-(1H-pyrazol-1-yl)benzoyl)piperidin-2-yl)methyl)amino)pyridazine-3-carbonitrile] | > 1000 | 53 |
| Cc1ccc(-c2ncccn2)c(C(=O)N2CCC[C@@H](C)[C@H]2CNc2ccc(C#N)cn2)c1 [Example A139, 6-((((2S,3R)-3-Methyl-1-(5-methyl-2-(pyrimidin-2-yl)benzoyl)piperidin-2-yl)methyl)amino)nicotinonitrile] | 140 | 41 |
| Cc1ccc(-n2ncc(C)n2)c(C(=O)N2CCC[C@@H](C)[C@H]2CNc2ccc(C(F)(F)F)nn2)c1 [Example A125, ((2S,3R)-3-Methyl-2-(((6-(trifluoromethyl)pyridazin-3-yl)amino)methyl)piperidin-1-yl)(5-methyl-2-(4-methyl-2H-1,2,3-triazol-2-yl)phenyl)methanone] | 25 | 75 |
| Cc1ccc(-c2cnn(C)c2)c(C(=O)N2CCC[C@@H](C)[C@H]2CNc2nc3ccc(Cl)cc3o2)c1 [Example A10, ((2S,3R)-2-(((6-Chlorobenzo[d]oxazol-2-yl)amino)methyl)-3-methylpiperidin-1-yl)(5-methyl-2-(1-methyl-1H-pyrazol-4-yl)phenyl)methanone] | 81 | 98 |
| Cc1ccc(-n2ccc(C)n2)c(C(=O)N2CCC[C@@H](C)[C@H]2CNc2nnc(C(F)(F)F)s2)c1 [Example A132, ((2S,3R)-3-Methyl-2-(((5-(trifluoromethyl)-1,3,4-thiadiazol-2-yl)amino)methyl)piperidin-1-yl)(5-methyl-2-(3-methyl-1H-pyrazol-1-yl)phenyl)methanone] | 160 | 81 |
| C[C@@H]1CCCN(C(=O)c2cc(F)ccc2-n2nccn2)[C@@H]1CNc1ncc(Cl)cn1 [Example A221, ((2S,3R)-2-(((5-Chloropyrimidin-2-yl)amino)methyl)-3-methylpiperidin-1-yl)(5-fluoro-2-(2H-1,2,3-triazol-2-yl)phenyl)methanone] | 32 | 53 |
| Cc1ccc(-c2ccccn2)c(C(=O)N2CCC[C@@H](C)[C@H]2CNc2ncc(C#N)cn2)c1 [Example A153, 2-((((2S,3R)-3-Methyl-1-(5-methyl-2-(pyridin-2-yl)benzoyl)piperidin-2-yl)methyl)amino)pyrimidine-5-carbonitrile] | 140 | 66 |
| Cc1ccc(NC[C@@H]2[C@H](C)CCCN2C(=O)c2cc(C)ccc2-c2ncccn2)nc1 [Example A143, ((2S,3R)-3-Methyl-2-(((5-methylpyridin-2-yl)amino)methyl)piperidin-1-yl)(5-methyl-2-(pyrimidin-2-yl)phenyl)methanone] | 26 | 75 |
| Cc1ccc(-n2nccn2)c(C(=O)N2CCC[C@@H](C)[C@H]2CNc2ccc(F)cn2)c1 [Example A47, ((2S,3R)-2-(((5-Fluoropyridin-2-yl)amino)methyl)-3-methylpiperidin-1-yl)(5-methyl-2-(2H-1,2,3-triazol-2-yl)phenyl)methanone] | 150 | 56 |
| Cc1ccc(-c2cnn(C)c2)c(C(=O)N2CCC[C@@H](C)[C@H]2CNc2ncccc2C#N)c1 [Example A95, 2-((((2S,3R)-3-Methyl-1-(5-methyl-2-(1-methyl-1H-pyrazol-4-yl)benzoyl)piperidin-2-yl)methyl)amino)nicotinonitrile] | > 1000 | 88 |

The next compounds have a lower IC50 (OX1) than those just listed; values first:

| IC50 (OX1) [nM] | inhibition at 10 µM (CYP3A4) [%] | Structure (SMILES) |
| --- | --- | --- |
| 20 | 67 | C[C@@H]1CCCN(C(=O)c2cc(F)c(F)cc2-n2nccn2)[C@@H]1CNc1ncc(C(F)(F)F)cn1 [Example A248, (4,5-Difluoro-2-(2H-1,2,3-triazol-2-yl)phenyl)((2S,3R)-3-methyl-2-(((5-(trifluoromethyl)pyrimidin-2-yl)amino)methyl)piperidin-1-yl)methanone] |
| 6 | 37 | Cc1ccc(-n2nccn2)c(C(=O)N2CCC[C@@H](C)[C@H]2CNc2ccc(C(F)(F)F)nn2)n1 [Example A176, ((2S,3R)-3-Methyl-2-(((6-(trifluoromethyl)pyridazin-3-yl)amino)methyl)piperidin-1-yl)(6-methyl-3-(2H-1,2,3-triazol-2-yl)pyridin-2-yl)methanone] |
| 4 | 63 | C[C@@H]1CCCN(C(=O)c2ccccc2-c2ncccn2)[C@@H]1CNc1ccc(C(F)(F)F)cn1 [Example A316, ((2S,3R)-3-Methyl-2-(((5-(trifluoromethyl)pyridin-2-yl)amino)methyl)piperidin-1-yl)(2-(pyrimidin-2-yl)phenyl)methanone] |
| 10 | 39 | C[C@@H]1CCCN(C(=O)c2cc(C#N)ccc2-c2ncccn2)[C@@H]1CNc1ncc(C(F)(F)F)cn1 [Example A323, 3-((2S,3R)-3-Methyl-2-(((5-(trifluoromethyl)pyrimidin-2-yl)amino)methyl)piperidine-1-carbonyl)-4-(pyrimidin-2-yl)benzonitrile] |
| 8 | 44 | Cc1ccc(-n2cccn2)c(C(=O)N2CCC[C@@H](C)[C@H]2CNc2ncc(C(F)(F)F)cn2)n1 [Example A166, ((2S,3R)-3-Methyl-2-(((5-(trifluoromethyl)pyrimidin-2-yl)amino)methyl)piperidin-1-yl)(6-methyl-3-(1H-pyrazol-1-yl)pyridin-2-yl)methanone] |
| 4 | 69 | C[C@@H]1CCCN(C(=O)c2c(F)cccc2-n2nccn2)[C@@H]1CNc1ccc(C(F)(F)F)cn1 [Example A258, (2-Fluoro-6-(2H-1,2,3-triazol-2-yl)phenyl)((2S,3R)-3-methyl-2-(((5-(trifluoromethyl)pyridin-2-yl)amino)methyl)piperidin-1-yl)methanone] |
| 5 | 75 | Cc1cccc(C(=O)N2CCC[C@@H](C)[C@H]2CNc2ccc(C(F)(F)F)cn2)c1-c1ncccn1 [Example A298, ((2S,3R)-3-Methyl-2-(((5-(trifluoromethyl)pyridin-2-yl)amino)methyl)piperidin-1-yl)(3-methyl-2-(pyrimidin-2-yl)phenyl)methanone] |
| 5 | 34 | Cc1ccc(-c2ncccn2)c(C(=O)N2CCC[C@@H](C)[C@H]2CNc2ncc(C(F)(F)F)cn2)n1 [Example A184, ((2S,3R)-3-Methyl-2-(((5-(trifluoromethyl)pyrimidin-2-yl)amino)methyl)piperidin-1-yl)(6-methyl-3-(pyrimidin-2-yl)pyridin-2-yl)methanone] |
| 21 | 90 | Cc1ccc(-n2ccc(C)n2)c(C(=O)N2CCC[C@@H](C)[C@H]2CNc2ccc(Cl)cn2)c1 [Example A120, ((2S,3R)-2-(((5-Chloropyridin-2-yl)amino)methyl)-3-methylpiperidin-1-yl)(5-methyl-2-(3-methyl-1H-pyrazol-1-yl)phenyl)methanone] |
